From publication PMC9706280 (Journal of Pesticide Science, 2022)

Biological target: succinate dehydrogenase (SDH) (Botrytis cinerea, UniProt A0A384J5E4+A0A384J8V8+A0A384JHJ5)
Experiment: SDH assay kit on B. cinerea mitochondrial suspension, absorbance at […] nm
Format: biochemical
Details: read-out: IC50 / μM

Sequence of succinate dehydrogenase (SDH) (A0A384J5E4 31-300): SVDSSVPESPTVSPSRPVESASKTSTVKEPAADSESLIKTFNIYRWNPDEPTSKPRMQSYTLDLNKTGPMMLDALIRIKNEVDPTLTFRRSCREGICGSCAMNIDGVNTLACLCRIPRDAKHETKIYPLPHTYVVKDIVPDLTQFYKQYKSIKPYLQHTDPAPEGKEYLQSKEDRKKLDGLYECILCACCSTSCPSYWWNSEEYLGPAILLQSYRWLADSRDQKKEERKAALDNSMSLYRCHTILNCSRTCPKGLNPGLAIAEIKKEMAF
Sequence of succinate dehydrogenase (SDH) (A0A384J8V8 41-189): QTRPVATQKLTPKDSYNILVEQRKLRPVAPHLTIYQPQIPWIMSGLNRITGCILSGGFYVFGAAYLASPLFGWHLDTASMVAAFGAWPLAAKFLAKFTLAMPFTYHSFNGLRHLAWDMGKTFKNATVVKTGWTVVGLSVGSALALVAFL
Sequence of succinate dehydrogenase (SDH) (A0A384JHJ5 55-192): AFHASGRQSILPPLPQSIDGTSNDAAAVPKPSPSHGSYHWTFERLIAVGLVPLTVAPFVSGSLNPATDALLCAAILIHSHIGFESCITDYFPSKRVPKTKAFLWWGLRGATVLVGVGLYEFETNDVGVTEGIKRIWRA
Sequence of succinate dehydrogenase (SDH) (A0A384K456 41-647 partner): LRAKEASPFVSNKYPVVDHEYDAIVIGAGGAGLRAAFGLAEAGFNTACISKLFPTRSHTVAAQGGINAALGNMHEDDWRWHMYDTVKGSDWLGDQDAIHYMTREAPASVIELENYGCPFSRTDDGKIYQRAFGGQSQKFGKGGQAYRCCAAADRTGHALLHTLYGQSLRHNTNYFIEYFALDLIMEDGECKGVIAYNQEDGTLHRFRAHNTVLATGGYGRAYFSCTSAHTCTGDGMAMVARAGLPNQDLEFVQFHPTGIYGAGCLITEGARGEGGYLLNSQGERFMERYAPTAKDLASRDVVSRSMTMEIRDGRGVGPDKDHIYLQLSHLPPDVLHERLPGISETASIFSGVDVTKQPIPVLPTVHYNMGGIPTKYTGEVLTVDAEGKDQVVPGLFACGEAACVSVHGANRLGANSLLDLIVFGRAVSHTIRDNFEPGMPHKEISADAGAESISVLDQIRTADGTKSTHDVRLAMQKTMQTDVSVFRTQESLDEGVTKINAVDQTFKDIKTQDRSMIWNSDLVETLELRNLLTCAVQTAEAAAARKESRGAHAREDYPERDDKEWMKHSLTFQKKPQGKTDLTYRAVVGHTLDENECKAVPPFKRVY

IC50 [µM]	SMILES
17.3	O=C(Nc1ccccc1Nc1ccccc1)c1ccc(Cl)nc1 [3f, 6-chloro-N-(2-(phenylamino)phenyl)nicotinamide]
14.4	Cc1nc(C(F)(F)F)c(C(=O)Nc2c(Br)cc(OC(F)(F)F)cc2Br)s1 [thifluzamide]
